9 molecules from paper PMC11396803, “Synthesis of Tumor Selective Indole and 8-Hydroxyquinoline Skeleton Containing Di-, or Triarylmethanes with Improved Cytotoxic Activity” (Molecules, 2024) can be followed below.

Like-named read-outs stand apart in the source and are kept apart here.

Holding throughout (assay type): cell-based, human
The test system of data set [1] is MRC-5 embryonic lung fibroblast cell line. The data set is described as follows: MTT cytotoxicity assay on normal MRC-5 fibroblasts. Particulars: for IC50: Homo sapiens; for Cytotoxic effect on normal MRC-5 cells (in words): up to 100 µM. The method, then:
(§1) The doxorubicin-sensitive Colo205 (ATCC-CCL-222) and the doxorubicin-resistant ABCB1- and LRP-expressing Colo320/MDR-LRP (ATCC-CCL-220.1) human colon adenocarcinoma cell lines were obtained from LGC Promochem in Teddington, UK. These cell lines were cultivated in RPMI 1640 medium supplemented with 10% heat-inactivated foetal bovine serum (FBS), 2 mM L-glutamine, 1 mM Na-pyruvate, 10 mM HEPES, along with nystatin, and gentamicin. The normal MRC-5 (ATCC CCL-171) human embryonic lung fibroblast cell line was purchased from Sigma-Aldrich (Merck KGaA, Darmstadt, Germany). The MRC-5 cells were cultured in EMEM medium, supplemented with 1% non-essential amino acid (NEAA) mixture, a selection of vitamins, 10% heat-inactivated FBS, 2 mM L-glutamine, 1 mM Na pyruvate, nystatin, and gentamicin. The cell lines were incubated in humidified atmosphere (5% CO2, 95% air) at 37 °C. The cells were detached with a Trypsin-Versene (EDTA) solution for 5 min at 37 °C.
(§2) The effects of increasing concentrations of the compounds on cell growth were tested in 96-well flat-bottomed microtiter plates. Namely, 1 × 10^4 of human colonic adenocarcinoma cells in 100 μL of the medium (RPMI 1640) were added to each well, except for the medium control wells. The adherent human embryonic lung fibroblast cell line was seeded in the EMEM medium for 24 h before the assay. The two-fold serial dilutions of the compounds were made in a separate plate (100–0.19 μM) and then transferred to the plates containing the cells. The starting concentration of the solvent DMSO was 2% v/v, and the highest concentration of the compounds in the plate was 100 μM. Plates were incubated at 37 °C for 24 h. At the end of the incubation, 20 μL of MTT (thiazolyl blue tetrazolium bromide) solution (from a 5 mg/mL stock solution) was added to each well. After incubation at 37 °C for 4 h, 100 μL of sodium dodecyl sulfate (SDS) solution (10% SDS in 0.01 M HCl) was added to each well, and the plates were further incubated at 37 °C overnight. Cell growth was determined by measuring the optical density (OD) at 540 nm (ref. 630 nm) with a Multiscan EX ELISA reader (Thermo Labsystems, Cheshire, WA, USA). Inhibition of cell growth was expressed as IC50 values, defined as the inhibitory dose that reduces the growth of the cells exposed to the tested compounds by 50%. IC50 values and the SD of triplicate and duplicate (in the case of MRC-5) experiments were calculated by using GraphPad Prism software version 5.00 for Windows, with a non-linear regression curve fit (GraphPad Software, San Diego, CA, USA; www.graphpad.com, accessed on 12 July 2021). Doxorubicin (from a 2 mg/mL stock solution, Teva Pharmaceuticals) was used as a positive control. […] The relative resistance (RR) was calculated as the ratio of the IC50 value in the resistant cancer cells and the IC50 value in the sensitive cancer cell lines. The selectivity indexes (SI) were calculated as the ratio of the IC50 value in the non-tumor cells and the IC50 value in the cancer cell lines. The activity of the compounds towards cancer cells is considered to be strongly selective if the selectivity index (SI) value is higher than 6, moderately selective if 3 < SI < 6, slightly selective if 1 < SI < 3, and non-selective if the SI is lower than 1 [22].
For orientation: Tetrazolium assays rely on reduction of a dye to a coloured formazan, in cell work by metabolically active cells.

Data set [2] deals with Colo320/MDR-LRP colon adenocarcinoma cell line. The data set is described as follows: MTT cytotoxicity assay on doxorubicin-resistant, ABCB1- and LRP-expressing Colo320 cells. The following applies: for IC50: Homo sapiens, COLO 320; for IC50 / Cytotoxic effect on Colo320 cells (in words): MTT; for Cytotoxic effect on Colo320 cells (in words): up to 100 µM; for Selectivity index SI MRC-5/Colo320: ratio of IC50 in non-tumor MRC-5 cells and IC50 in Colo320. The method, then: as §1, §2

In data set [3] the test system is Colo205 colon adenocarcinoma cell line. The data set can be described thus: MTT cytotoxicity assay on doxorubicin-sensitive Colo205 cells. The following applies: for IC50: Homo sapiens, COLO 205; for IC50 / Cytotoxic effect on Colo205 cells (in words): MTT; for Cytotoxic effect on Colo205 cells (in words): up to 100 µM; for Selectivity index SI MRC-5/Colo205: ratio of IC50 in non-tumor MRC-5 cells and IC50 in Colo205. The method, then: as §1, §2

[4] abbreviates: MRC5, 24 h incubation, average of 2 parallel experiments, read-out: IC50 MRC-5 AV ± SD.
[5] abbreviates: 24 h incubation, average of 3 parallel experiments, read-out: IC50 Colo320 AV ± SD.
Where [6] appears, read: 24 h incubation, average of 3 parallel experiments, read-out: IC50 Colo205 AV ± SD.
Where [7] appears, read: 24 h, single experiment, read-out: IC50 Colo320, parallel experiment 1.
[8] abbreviates: 24 h, single experiment, read-out: IC50 Colo320, parallel experiment 2.
[9] abbreviates: 24 h, single experiment, read-out: IC50 Colo320, parallel experiment 3.
Setting [10] is: 24 h, single experiment, read-out: IC50 Colo205, parallel experiment 1.
Where [11] appears, read: 24 h, single experiment, read-out: IC50 Colo205, parallel experiment 2.
[12] abbreviates: 24 h, single experiment, read-out: IC50 Colo205, parallel experiment 3.
[13] abbreviates: MRC5, 24 h, single experiment, read-out: IC50 MRC-5, parallel experiment 1.
Where [14] appears, read: MRC5, 24 h, single experiment, read-out: IC50 MRC-5, parallel experiment 2.

One may read the IC50 as the midpoint of a concentration-inhibition curve. `O=C1Oc2ccc3ccccc3c2C1c1c[nH]c2ccccc12` (stereo not shown) [Compound 3, 1-(1H-indol-3-yl)naphtho[2,1-b]furan-2(1H)-one]: the concentration for half-maximal inhibition (IC50) in data set [1] (setting [4]), in data set [2] (setting [5]) and in data set [3] (setting [6]) was more than 100 µM in each case. Moreover, the “Cytotoxic effect on Colo320 cells (in words)” value in data set [2] is “no effect”. The “Cytotoxic effect on Colo205 cells (in words)” value in data set [3] was “no effect”.

Turning to `CCOC(=O)C(c1ccc2ccccc2c1O)c1c[nH]c2ccccc12` (stereo not shown) [Compound 7, Ethyl 2-(1-hydroxynaphthalen-2-yl)-2-(1H-indol-3-yl)acetate], the half-inhibitory concentration (IC50) in data set [1] (setting [4]) is more than 100 µM; in data set [2] (setting [7]), 53.8 µM; in data set [2] (setting [8]), 54.9 µM; in data set [2] (setting [9]) it was 52.2 µM; in data set [2] (setting [5]), 53.6 ± 1.38 µM; in data set [3] (setting [6]) it was more than 100 µM. In data set [3], the “Cytotoxic effect on Colo205 cells (in words)” value is listed as “no effect”.

Turning to `CCOC(=O)C(c1cc(Cl)c2cccnc2c1O)N1CCOCC1` (stereo not shown) [Compound 10, Ethyl 2-(5-chloro-8-hydroxyquinolin-7-yl)-2-morpholinoacetate], the IC50 in data set [1] (setting [4]) is more than 100 µM; in data set [2] (setting [7]), 1.56 µM; in data set [2] (setting [8]) it was 1.81 µM; in data set [2] (setting [9]), 1.79 µM; in data set [2] (setting [5]), 1.72 ± 0.14 µM; in data set [3] (setting [10]), 2.07 µM. Besides, the IC50 turned out to be 2.06 µM in data set [3] (setting [11]), 2.02 µM in data set [3] (setting [12]) and 2.05 ± 0.02 µM in data set [3] (setting [6]). Further, the “Cytotoxic effect on normal MRC-5 cells (in words)” value in data set [1] is “no toxicity”. Further, in data set [2], the “Selectivity index SI MRC-5/Colo320” value was more than 6. Also, the “Selectivity index SI MRC-5/Colo205” value in data set [3] was more than 6.

Take `CCOC(=O)C(c1cc(Cl)c2cccnc2c1O)c1c[nH]c2ccccc12` (stereo not shown) [Compound 11, Ethyl 2-(5-chloro-8-hydroxyquinolin-7-yl)-2-(1H-indol-3-yl)acetate]: the IC50 turned out to be 54.5 µM in data set [1] (setting [13]); 55.1 µM in data set [1] (setting [14]); 54.77 ± 0.44 µM in data set [1] (setting [4]); 4.64 µM in data set [2] (setting [7]); 4.83 µM in data set [2] (setting [8]); 4.96 µM in data set [2] (setting [9]). The IC50 came to 4.81 ± 0.16 µM in data set [2] (setting [5]); 5.51 µM in data set [3] (setting [10]); 4.71 µM in data set [3] (setting [11]); 4.42 µM in data set [3] (setting [12]); 4.88 ± 0.56 µM in data set [3] (setting [6]). For the same molecule, in data set [1], the “Cytotoxic effect on normal MRC-5 cells (in words)” value is listed as “mild cytotoxic effect”. For the same molecule, the “Selectivity index SI MRC-5/Colo320” value in data set [2] stood at 11.4. The “Selectivity index SI MRC-5/Colo205” value in data set [3] is recorded as 11.2.

As for `CCOC(=O)C(c1cc(Cl)c2cccnc2c1O)c1c[nH]c2ncccc12` (stereo not shown) [Compound 12, Ethyl 2-(5-chloro-8-hydroxyquinolin-7-yl)-2-(7-azaindole-3-yl)acetate], the IC50 was 46.9 µM in data set [1] (setting [13]); 45.6 µM in data set [1] (setting [14]); 46.2 ± 0.95 µM in data set [1] (setting [4]); 5.16 µM in data set [2] (setting [7]); 4.92 µM in data set [2] (setting [8]); 5.11 µM in data set [2] (setting [9]). Also, the IC50 was 5.06 ± 0.12 µM in data set [2] (setting [5]); 8.05 µM in data set [3] (setting [10]); 7.42 µM in data set [3] (setting [11]); 8.84 µM in data set [3] (setting [12]); 8.11 ± 0.71 µM in data set [3] (setting [6]). The “Cytotoxic effect on normal MRC-5 cells (in words)” value in data set [1] was “mild cytotoxic effect”. In addition, the “Selectivity index SI MRC-5/Colo320” value in data set [2] is 9.1. Further, the “Selectivity index SI MRC-5/Colo205” value in data set [3] is on record as 5.7.

In the case of `Oc1c(C(c2ccccc2)c2c[nH]c3ccccc23)cc(Cl)c2cccnc12` (stereo not shown) [Compound 14, 7-((1H-indol-3-yl)(phenyl)methyl)-5-chloroquinolin-8-ol], the IC50 in data set [1] (setting [13]) worked out at 30.1 µM; in data set [1] (setting [14]), 29.3 µM; in data set [1] (setting [4]), 29.7 ± 0.57 µM; in data set [2] (setting [7]), 2.55 µM; in data set [2] (setting [8]) it was 2.84 µM; in data set [2] (setting [9]) it was 2.78 µM. Moreover, the IC50 in data set [2] (setting [5]) is 2.72 ± 0.15 µM; in data set [3] (setting [10]) it was 2.49 µM; in data set [3] (setting [11]), 2.49 µM; in data set [3] (setting [12]) it was 2.63 µM; in data set [3] (setting [6]), 2.53 ± 0.08 µM. Besides, the “Cytotoxic effect on normal MRC-5 cells (in words)” value in data set [1] is recorded as “mild cytotoxic effect”. In addition, the “Selectivity index SI MRC-5/Colo320” value in data set [2] is listed as 11. Also, the “Selectivity index SI MRC-5/Colo205” value in data set [3] is listed as 11.7.

As for `Oc1c(Cc2c[nH]c3ccccc23)cc(Cl)c2cccnc12` [Compound 16, 7-((1H-indol-3-yl)methyl)-5-chloroquinolin-8-ol], the IC50 in data set [1] (setting [4]) was more than 100 µM; in data set [2] (setting [7]) it was 4.97 µM; in data set [2] (setting [8]), 4.74 µM; in data set [2] (setting [9]) it was 4.91 µM; in data set [2] (setting [5]) it was 4.87 ± 0.12 µM; in data set [3] (setting [10]), 13.6 µM. The IC50 was found to be 13.4 µM in data set [3] (setting [11]), 12.3 µM in data set [3] (setting [12]) and 13.1 ± 0.7 µM in data set [3] (setting [6]). In data set [1], the “Cytotoxic effect on normal MRC-5 cells (in words)” value is on record as “no toxicity”. In addition, the “Cytotoxic effect on Colo320 cells (in words)” value in data set [2] is listed as “potent toxic activity”. For the same molecule, the “Selectivity index SI MRC-5/Colo320” value in data set [2] is more than 6. Also, the “Selectivity index SI MRC-5/Colo205” value in data set [3] is more than 6.

For the molecule `Oc1c(Cc2c[nH]c3ncccc23)cc(Cl)c2cccnc12` [Compound 17, 7-((7-azaindole-3-yl)methyl)-5-chloroquinolin-8-ol], the IC50 in data set [1] (setting [4]) was more than 100 µM; in data set [2] (setting [7]) it was 23 µM; in data set [2] (setting [8]), 21.9 µM; in data set [2] (setting [9]), 22.5 µM; in data set [2] (setting [5]) it was 22.5 ± 0.55 µM; in data set [3] (setting [10]), 36.5 µM. Moreover, the IC50 in data set [3] (setting [11]) amounted to 39.4 µM; in data set [3] (setting [12]), 40.4 µM; in data set [3] (setting [6]) it was 38.8 ± 2.03 µM.

Take `COc1cccc2c1C(=O)c1c(O)c3c(c(O)c1C2=O)C[C@@](O)(C(=O)CO)C[C@@H]3O[C@H]1C[C@H](N)[C@H](O)[C@H](C)O1` [DOX, Doxorubicin, reference compound]: the IC50 in data set [1] (setting [4]) is more than 8.62 µM; in data set [2] (setting [7]), 3.12 µM; in data set [2] (setting [8]) it was 3.12 µM; in data set [2] (setting [9]) it was 2.96 µM; in data set [2] (setting [5]), 3.07 ± 0.09 µM; in data set [3] (setting [10]), 0.84 µM. In addition, the IC50 stood at 0.89 µM in data set [3] (setting [11]), 0.81 µM in data set [3] (setting [12]) and 0.85 ± 0.04 µM in data set [3] (setting [6]).
